Reference: patent US4894225A (priority 1987, dated 1990)

Test system: MX-1 tumors (human breast adenocarcinoma-derived tumor cell line)
Conditions: in vivo

O=P1(N(CCCl)CCCl)NCCCO1 (stereo not shown) [cytoxan]
% TGI (tumor growth inhibition vs PBS): 90.5% | deaths: 0/5 | ΔBW (change in body weight): 1.11 | ΔTW (change in tumor weight): 2.4
